Activity calls are given as the source filed them. The calls are words filed in the database; no cut-off is given here.
Assays:
[1] = Inhibition of alpha-glucosidase assessed as p-nitrophenol release using p-nitrophenyl-alpha-D-glucopyranoside as substrate preincubated for 1 hr before substrate addition at pH 6.8 measured after 10 mins by spectrophotometry
[2] = target: T1, Pancreatic alpha-amylase (Sus scrofa) (UniProt P00690); assay: Inhibition of pig pancreatic alpha-amylase assessed as maltose release from starch at 5 mg/cm'3 after 10 mins by DNSA assay
T1 sequence (whole entry): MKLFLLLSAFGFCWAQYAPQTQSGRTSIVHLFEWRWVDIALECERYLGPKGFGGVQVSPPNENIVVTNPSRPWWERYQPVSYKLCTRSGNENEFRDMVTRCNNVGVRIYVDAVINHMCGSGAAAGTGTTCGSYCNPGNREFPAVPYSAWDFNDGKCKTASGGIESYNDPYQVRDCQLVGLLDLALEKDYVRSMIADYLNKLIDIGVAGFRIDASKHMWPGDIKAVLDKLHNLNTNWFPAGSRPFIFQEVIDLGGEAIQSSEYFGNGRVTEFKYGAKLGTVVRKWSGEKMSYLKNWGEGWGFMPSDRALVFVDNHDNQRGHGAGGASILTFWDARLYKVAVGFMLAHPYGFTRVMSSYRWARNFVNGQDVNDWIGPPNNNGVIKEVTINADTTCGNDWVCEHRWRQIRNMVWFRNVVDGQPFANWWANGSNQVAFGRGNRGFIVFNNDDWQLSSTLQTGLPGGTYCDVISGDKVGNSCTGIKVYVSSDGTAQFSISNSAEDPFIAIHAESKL

[3] = Inhibition of jack bean alpha-mannosidase assessed as p-nitrophenol release using p-nitrophenyl-alpha-D-mannopyranoside as substrate preincubated for 1 hr before substrate addition at pH 4.5 measured after 10 mins by spectrophotometry; design: species or system Canavalia ensiformis
[4] = Inhibition of alpha-galactosidase assessed as p-nitrophenol release using p-nitrophenyl-alpha-D-galactopyranoside as substrate preincubated for 1 hr before substrate addition measured after 10 mins by spectrophotometry
[5] = Inhibition of alpha-mannosidase
[6] = Inhibition of jack bean alpha-mannosidase assessed as p-nitrophenol release using p-nitrophenyl-alpha-D-mannopyranoside as substrate after 15 to 60 mins by spectrophotometry; design: species or system Canavalia ensiformis

Structure (SMILES) | inhibition [1] | inhibition [2] | IC50 [3] [µM] | inhibition [4] | IC50 [5] [mM] | IC50 [6] [nM]
OC[C@@H]1CC2NCC1(O)C(O)C2O (stereo partly specified) |  |  |  |  | 9.6 | 
O[C@H]1[C@H]2[C@H](O)CCCN2C[C@H]1O [TRIDOLGOSIR] |  |  |  |  |  | 100
OC[C@@H]1CC2C(O)C(O)C1(O)CN2Cc1ccccc1 (stereo partly specified) |  |  |  |  | 20 | 

Now from value to compound, other results behind:

inhibition [1] | inhibition [2] | IC50 [3] [µM] | inhibition [4] | Structure (SMILES) | IC50 [5] [mM] | IC50 [6] [nM]
inactive | inactive | 98.3 | inactive | NC[C@H]1O[C@@H]2OCC[C@@]1(O)[C@H]2O |  | 
inactive | inactive | 133 | inactive | OC[C@H]1O[C@@H]2OCC[C@@]1(O)[C@H]2O |  | 

From ChEMBL document CHEMBL1914357, “Synthesis of anomeric 1,5-anhydrosugars as conformationally locked selective α-mannosidase inhibitors” (Bioorg Med Chem, 2011)
